The text below walks through data of US10548871B2, “Low-dose doxepin formulations and methods of making and using the same” (Pernix Sleep, Inc., priority 2007, dated 2020).

The conditions of data set [1]: Biopharmaceutic Classification System; cited from earlier work.
Data set [2] can be described thus: Pharmacokinetic performance of low dose doxepin capsules and tablets in healthy adult volunteers, crossover design. As to conditions: majority of subjects. The data set is classed as in vivo, human. As for the experimental part:
The pharmacokinetic performance of oral, low dose doxepin formulations is well suited to the treatment of insomnia. The pharmacokinetic performance of capsules containing 1, 3 or 6 mg doxepin, as well as tablets containing 6 mg doxepin, was evaluated in healthy adult volunteers under a crossover design.
Of further interest to the pharmacokinetic performance of these doxepin formulations was the time necessary to reach certain plasma concentrations. Reaching particular concentrations in plasma can play a role in establishing therapeutic benefit. In particular, doxepin concentrations in plasma reach 0.05 ng/mL in the majority of subjects for all doses within 90 minutes after dosing. […] Such pharmacokinetic performance is beneficial in the treatment of insomnia, as reaching measurable plasma concentrations in a timely manner can be preferred for facilitating the onset of sleep.

The test system of data set [3] is adult insomnia patients. Nature of the data set: Polysomnographic endpoints in adult insomnia patients treated with 3 mg doxepin.

Structures can show the parent of a compound that is named as a salt. A value given as a limit tells only on which side of the number the result lay.

For `CN(C)CCC=C1c2ccccc2COc2ccccc21` [doxepin HCl, Doxepin HCl], the solubility result in data set [1] is reported as “high solubility”.
As for `CN(C)CCC=C1c2ccccc2COc2ccccc21` [doxepin], the “time after dosing to reach plasma concentration of 0.1 ng/mL” value in data set [2] (3 and 6 mg doses) is at most 60 min. Besides, the “time after dosing for doxepin plasma concentration to reach 0.05 ng/mL” value in data set [2] (all doses) was at most 90 min. Besides, in data set [3], the maintenance of sleep entry is given as “persisted throughout the entire night (8 hours)” and the residual sedation result is given as “not followed by residual sedation”. Also, the “sleep onset, on average, after bedtime” value in data set [3] (polysomnographic endpoint) turned out to be 27 min.
